# Data from PMC7698210 (International Journal of Molecular Sciences, 2020).
# Read-outs that look alike come from different tables or passages of the source.
# Assays:
# Experiment in all cases: cell-based
# H1R [1] = target: T1, H1R (Homo sapiens, UniProt P35367); parameters: gene HRH1; full receptor, C-terminal NlucC tag (11 aa split-NanoLuc fragment); co-expressed with NlucN-mGsq (mini-Gs/q71) in HEK293T; species or system HEK293T; conditions: HEK-293T, read-out: Mini G Protein Recruitment / Emax [%]
# T1 sequence (P35367 whole entry, the tested form may be a part): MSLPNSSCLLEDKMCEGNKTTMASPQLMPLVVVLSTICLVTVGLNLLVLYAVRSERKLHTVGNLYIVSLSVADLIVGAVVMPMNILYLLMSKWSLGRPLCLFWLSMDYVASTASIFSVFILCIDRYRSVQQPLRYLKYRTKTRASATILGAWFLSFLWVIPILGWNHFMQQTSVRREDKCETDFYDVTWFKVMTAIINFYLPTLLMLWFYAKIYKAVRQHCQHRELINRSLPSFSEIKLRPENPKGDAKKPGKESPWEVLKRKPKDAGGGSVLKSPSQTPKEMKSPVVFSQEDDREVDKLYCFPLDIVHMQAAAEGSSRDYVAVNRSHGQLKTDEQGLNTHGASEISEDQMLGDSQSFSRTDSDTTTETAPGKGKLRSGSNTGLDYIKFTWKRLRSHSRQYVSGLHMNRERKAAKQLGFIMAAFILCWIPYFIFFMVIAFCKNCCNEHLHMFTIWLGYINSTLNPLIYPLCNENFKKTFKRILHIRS
# H2R [2] = target: T2, H2R (Homo sapiens, UniProt P25021); parameters: species or system HEK293T; conditions: HEK-293T; read-out: Mini G Protein Recruitment / Emax [%]
# T2 construct: gene HRH2; full receptor, C-terminal NlucC tag (11 aa split-NanoLuc fragment); co-expressed with NlucN-mGs (mini-Gs393) in HEK293T
# T2 sequence (P25021 whole entry, the tested form may be a part): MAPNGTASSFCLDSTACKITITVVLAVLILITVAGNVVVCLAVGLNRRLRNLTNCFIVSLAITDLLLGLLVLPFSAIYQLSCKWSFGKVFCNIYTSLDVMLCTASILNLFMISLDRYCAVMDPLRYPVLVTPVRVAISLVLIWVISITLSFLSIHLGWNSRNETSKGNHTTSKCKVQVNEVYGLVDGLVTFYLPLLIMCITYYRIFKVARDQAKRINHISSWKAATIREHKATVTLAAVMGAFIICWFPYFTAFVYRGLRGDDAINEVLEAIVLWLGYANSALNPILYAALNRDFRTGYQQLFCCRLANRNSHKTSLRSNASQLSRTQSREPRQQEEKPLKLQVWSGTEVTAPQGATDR
# H2R [3] = target: T2, H2R; parameters: species or system HEK293T; conditions: HEK-293T; read-out: Mini G Protein Recruitment / Emax [%]; remark: listed apart in the source
# H1R [4] = target: T1, H1R; parameters: gene HRH1; conditions: HEK-293T, read-out: Mini G Protein Recruitment / Emax [%]
Structure (SMILES),Emax (H1R [1]) [%],Emax (H2R [2]) [%],Emax (H2R [3]) [%],other results
"Cc1[nH]cnc1CCN [4mhis, 4-methylhistamine]",44 ± 2.4,93 ± 2.2,–,–
"CNCCc1cnc[nH]1 [Namh, N^α-methylhistamine]",99 ± 2,93 ± 1.7,–,–
"CCC(=O)NC(N)=NCCCc1cnc[nH]1 [PI294, UR-PI294]",29 ± 1.4,95 ± 1.1,–,–
"Cc1nc(N)sc1CCN [amt, amthamine]",–,105 ± 2.8,–,–
"CN=C(NC#N)NCCSCc1nc[nH]c1C [cim, cimetidine]",–,–,-8 ± 0.8,–
"CN(C)CCCSC(=N)N [dim, dimaprit]",–,94 ± 2.6,–,–
"NC(N)=Nc1nc(CSCCC(N)=NS(N)(=O)=O)cs1 [fam, famotidine]",–,–,-9 ± 0.7,–
"NCCc1c[nH]cn1 [his, histamine]",–,–,100,Emax (H1R [4]): 100%
"NCCc1c[nH]c(CCC(c2ccccc2)c2ccccc2)n1 [histapro, histaprodifen]",33 ± 2,–,–,–
"Cc1[nH]cnc1CSCCNC(=N)NCCCc1c[nH]cn1 [impro, impromidine]",–,90 ± 1.5,–,–
"CNC(=C[N+](=O)[O-])NCCSCc1ccc(CN(C)C)o1 [ran, ranitidine]",–,–,-8 ± 0.7,–
"c1ccc(C(CCc2nc(CCNCCc3c[nH]cn3)c[nH]2)c2ccccc2)cc1 [suprahis, suprahistaprodifen]",49 ± 3.7,–,–,–
